Assay results published in patent publication US20250011313A1, “CCR6 RECEPTOR MODULATORS” (Idorsia Pharmaceuticals Ltd, priority 2021, published 2025).

Biological target: T1, human CCR6 (Homo sapiens, UniProt P51684)
T1 construct: expressed in transfected cells; host or cells: HEK-293
T1 sequence (P51684 1-374): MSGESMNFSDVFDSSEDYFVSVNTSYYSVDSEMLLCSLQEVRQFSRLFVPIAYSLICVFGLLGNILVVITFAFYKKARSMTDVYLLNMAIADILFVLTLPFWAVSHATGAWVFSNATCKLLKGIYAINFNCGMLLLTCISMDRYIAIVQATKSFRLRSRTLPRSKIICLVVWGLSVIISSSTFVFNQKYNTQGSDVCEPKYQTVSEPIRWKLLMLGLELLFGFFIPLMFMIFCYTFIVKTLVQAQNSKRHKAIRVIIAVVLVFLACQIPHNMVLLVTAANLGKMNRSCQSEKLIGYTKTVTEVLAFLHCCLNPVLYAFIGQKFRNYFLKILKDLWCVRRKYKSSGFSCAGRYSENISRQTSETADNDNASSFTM
Assay: FLIPR assay (calcium flux, inhibition of CCL20 agonist response)
Assay type: cell-based
Settings: HEK-293 cells expressing human CCR6; agonist CCL20 10 nM; 30 min preincubation; mean values if determined several times
Protocol: FLIPR assay: The bioactivity of compounds is tested in a fluorometric imaging plate reader (FLIPR: Molecular Devices) using engineered HEK-293 cells expressing the human CCR6 (GenBank: AY242126). Frozen cells are plated on Poly-L-Lysine precoated 384-well plates 2 days prior to bioassay in DMEM medium supplemented with 10% FCS and 1% Penicillin-Streptomycin. At the day of bioassay, cell supernatant is discarded and cells are dye loaded for 30 minutes at room temperature in the dark with Fluo-8-AM (Focus Biomolecules) in Hanks Balanced Salt Solution (Gibco), buffered with 20 mM Hepes at pH 6.75 and supplemented with 0.05% BSA. This buffer, but lacking the dye, is also used for washing and compound dilution steps (assay buffer). Cells are washed free of excess dye with a wash-station (Biotek), leaving 40 microliter of assay buffer at the end. Cells were incubated for 15 minutes at room temperature in the dark, before adding compounds. Stock solutions of test compounds are made up at a concentration of 10 mM in DMSO, and serially diluted first in DMSO and then transferred in assay buffer to concentrations required for inhibition dose response curves. After a 45 minute incubation period in assay buffer at room temperature, 10 microliters of each compound dilution are transferred from a compound plate to the plate containing the recombinant cells in the FLIPR instrument according to the manufacturer's instructions. After cells and compounds were preincubated for 30 minutes at room temperature in the dark, 10 microliter agonist CCL20 (Peprotech) at a final concentration of 10 nM is added, again using the FLIPR instrument. Changes in fluorescence are monitored before and after addition of the test compounds and agonist. Emission peak values above base level after CCL20 addition are exported after base line subtraction. The calculated IC50 values may fluctuate depending on the daily assay performance. Fluctuations of this kind are known to those skilled in the art. In the case where IC50 values have been determined several times for the same compound, mean values are given.

SMILES	IC50 [nM]
CC(=O)NC12CC(c3nc(-c4cncc([C@@](O)(c5ccc(C(C)C)cc5)C5(C)CN(C)C5)c4)no3)(C1)C2 [Example 3, N-[3-(3-{5-[(R)-(1,3-Dimethyl-azetidin-3-yl)-hydroxy-(4-isopropyl-phenyl)-methyl]-pyridin-3-yl}-[1,2,4]oxadiazol-5-yl)-bicyclo[1.1.1]pent-1-yl]-acetamide]	55.7
CN1CC(C)([C@](O)(c2ccc(CC(F)(F)F)cc2)c2cncc(-c3noc([C@H]4CC[C@H](O)CC4)n3)c2)C1 [Example 1, trans-4-[3-(5-{(R)-(1,3-Dimethyl-azetidin-3-yl)-hydroxy-[4-(2,2,2-trifluoro-ethyl)-phenyl]-methyl}-pyridin-3-yl)-[1,2,4]oxadiazol-5-yl]-cyclohexanol]	83
CN1CC(C)([C@](O)(c2ccc(CC(F)(F)F)cc2)c2cncc(-c3noc(C45CC(CO)(C4)C5)n3)c2)C1 [Example 2, (R)-(1,3-Dimethyl-azetidin-3-yl)-{5-[5-(3-hydroxymethyl-bicyclo[1.1.1]pent-1-yl)-[1,2,4]oxadiazol-3-yl]-pyridin-3-yl}-[4-(2,2,2-trifluoro-ethyl)-phenyl]-methanol]	140
CC(C)c1ccc([C@](O)(c2cncc(-c3noc(C45CCC(C(N)=O)(CC4)CC5)n3)c2)C2(C)CN(C)C2)cc1 [Example 13, 4-(3-{5-[(R)-(1,3-Dimethyl-azetidin-3-yl)-hydroxy-(4-isopropyl-phenyl)-methyl]-pyridin-3-yl}-[1,2,4]oxadiazol-5-yl)-bicyclo[2.2.2]octane-1-carboxylic acid amide]	37.5
CN1CC(C)([C@](O)(c2ccc(CC(F)(F)F)cc2)c2cncc(-c3nc(C(C)(C)CO)no3)c2)C1 [Example 5, 2-[5-(5-{(R)-(1,3-Dimethyl-azetidin-3-yl)-hydroxy-[4-(2,2,2-trifluoro-ethyl)-phenyl]-methyl}-pyridin-3-yl)-[1,2,4]oxadiazol-3-yl]-2-methyl-propan-1-ol]	144
CC(=O)N[C@H]1CC[C@H](c2nc(-c3cncc([C@@](O)(c4ccc(CC(F)(F)F)cc4)C4(C)CN(C)C4)c3)no2)CC1 [Example 16, N-{4-[3-(5-{(R)-(1,3-Dimethyl-azetidin-3-yl)-hydroxy-[4-(2,2,2-trifluoro-ethyl)-phenyl]-methyl}-pyridin-3-yl)-[1,2,4]oxadiazol-5-yl]-trans-cyclohexyl}-acetamide]	226
CC(C)c1ccc([C@](O)(c2cncc(-c3noc(C45CCC(O)(CC4)CC5)n3)c2)C2(C)CN(C)C2)cc1 [Example 4, 4-(3-{5-[(R)-(1,3-Dimethyl-azetidin-3-yl)-hydroxy-(4-isopropyl-phenyl)-methyl]-pyridin-3-yl}-[1,2,4]oxadiazol-5-yl)-bicyclo[2.2.2]octan-1-ol]	23.9
CN1CC(C)([C@](O)(c2ccc(CC(F)(F)F)cc2)c2cncc(-c3nc(C45CC(CO)(C4)C5)no3)c2)C1 [Example 9, (R)-(1,3-Dimethyl-azetidin-3-yl)-{5-[3-(3-hydroxymethyl-bicyclo[1.1.1]pent-1-yl)-[1,2,4]oxadiazol-5-yl]-pyridin-3-yl}-[4-(2,2,2-trifluoro-ethyl)-phenyl]-methanol]	146
CN1CC(C)([C@](O)(c2ccc(CC(F)(F)F)cc2)c2cncc(-c3noc(C45CCC(C(N)=O)(CC4)CC5)n3)c2)C1 [Example 15, 4-[3-(5-{(R)-(1,3-Dimethyl-azetidin-3-yl)-hydroxy-[4-(2,2,2-trifluoro-ethyl)-phenyl]-methyl}-pyridin-3-yl)-[1,2,4]oxadiazol-5-yl]-bicyclo[2.2.2]octane-1-carboxylic acid amide]	65.3

Second part, the molecule after the results:

IC50 [nM]	SMILES
46.3	CC(C)c1ccc([C@](O)(c2cncc(-c3noc(C4CCC(C(N)=O)CC4)n3)c2)C2(C)CN(C)C2)cc1 (stereo partly drawn) [Example 14, 4-(3-{5-[(R)-(1,3-Dimethyl-azetidin-3-yl)-hydroxy-(4-isopropyl-phenyl)-methyl]-pyridin-3-yl}-[1,2,4]oxadiazol-5-yl)-cyclohexanecarboxylic acid amide]
52.2	CC(=O)NC1CCC(c2nc(-c3cncc([C@@](O)(c4ccc(C(C)C)cc4)C4(C)CN(C)C4)c3)no2)CC1 (single isomer, unassigned) [Example 8, cis- or trans-N-[4-(3-{5-[(R)-(1,3-Dimethyl-azetidin-3-yl)-hydroxy-(4-isopropyl-phenyl)-methyl]-pyridin-3-yl}-[1,2,4]oxadiazol-5-yl)-cyclohexyl]-acetamide]
71.5	CC(C)c1ccc([C@](O)(c2cncc(C#CC(C)(O)c3ccncn3)c2)C2(C)CN(C)C2)cc1 (single isomer, unassigned) [Example 10, (R)- or (S)-4-{5-[(R)-(1,3-Dimethyl-azetidin-3-yl)-hydroxy-(4-isopropyl-phenyl)-methyl]-pyridin-3-yl}-2-pyrimidin-4-yl-but-3-yn-2-ol]
28.7	CC(C)c1ccc([C@](O)(c2cncc(C#C[C@H]3CC[C@H](O)CC3)c2)C2(C)CN(C)C2)cc1 [Example 11, trans-4-{5-[(R)-(1,3-Dimethyl-azetidin-3-yl)-hydroxy-(4-isopropyl-phenyl)-methyl]-pyridin-3-ylethynyl}-cyclohexanol]
78.8	CCC(=O)N[C@H]1CC[C@H](c2nc(-c3cncc([C@@](O)(c4ccc(C(C)C)cc4)C4(C)CN(C)C4)c3)no2)CC1 [Example 7, trans-N-[4-(3-{5-[(R)-(1,3-Dimethyl-azetidin-3-yl)-hydroxy-(4-isopropyl-phenyl)-methyl]-pyridin-3-yl}-[1,2,4]oxadiazol-5-yl)-cyclohexyl]-propionamide]
25.4	CC(C)c1ccc([C@](O)(c2cncc(C#C[C@H]3CC[C@@H](O)CC3)c2)C2(C)CN(C)C2)cc1 [Example 12, cis-4-{5-[(R)-(1,3-Dimethyl-azetidin-3-yl)-hydroxy-(4-isopropyl-phenyl)-methyl]-pyridin-3-ylethynyl}-cyclohexanol]
111	CC(=O)N1CC2(CC(c3nc(-c4cncc([C@@](O)(c5ccc(C(C)C)cc5)C5(C)CN(C)C5)c4)no3)C2)C1 [Example 6, 1-[6-(3-{5-[(R)-(1,3-Dimethyl-azetidin-3-yl)-hydroxy-(4-isopropyl-phenyl)-methyl]-pyridin-3-yl}-[1,2,4]oxadiazol-5-yl)-2-aza-spiro[3.3]hept-2-yl]-ethanone]
